Entries after “also recorded” stand apart in the source; their conditions may differ. Where two headings read alike, the source gives them in different places.
Legend:
[1] = cited from earlier work
[2] = tested on: rats with cortical contusion injury (TBI); test: Cortical contusion injury, hippocampal cell counts after H&E staining; format: in vivo, rat
Method: (§1) Cortical Contusion Injury. Adult male and female Sprague-Dawley and Wistar rats (225-350 gm) received a moderately severe cortical impact injury under anesthesia with a controlled weight drop apparatus mounted on a stereotactic apparatus. Anesthesia was induced with ketamine/xylazine (60/6 mg/kg i.p.). A midline incision was performed to expose the skull. The dura was exposed with a 4.4-mm craniotomy centered at 1.4-mm posterior and 2.4-mm lateral to the bregma for placement of the 4-mm diameter foot-plate of the contusion apparatus. Contusion injury force of 600 g/cm was produced with a 20-g weight and dropping distance of 30-cm. The 20-g weight was released into a vertical guided tube that strikes the foot plate positioned at the end of the tube which is in contact with the dura. To avoid brain penetration, the foot-plate was prevented by a guide from moving greater than 2.5-mm into the dura.
(§2) Drug Administration. Rats in the TBI+CBD group received the gelfoam sponge infused with CBD (20.0 mg/ml) directly to the open contusion site overlying the dura within 2 min after the weight was removed from the apparatus. CBD was also administered systemically 10 min following surgery at 40 mg/kg followed by 20 mg/kg for all other injection days. TBI rats received gelfoam with coconut or olive oil directly onto the open contusion site overlying the dura following their respective surgical contusions. TBI rats also received vehicle, either coconut oil, olive oil, or PBS systemically at equal volumes that were administered to CBD treated animals according to weight (0.1-0.4 cc).
In the contralateral CAL injured cells were intermingled among healthy appearing round cell bodies. […] In contrast to the TBI+vehicle group, the ipsilateral hippocampus was predominantly intact in all CBD treated animals but with disproportional levels of injured cells throughout the subfields. There were varied numbers of pyknotic, acidophilic, irregular shaped CA1 and CA3a (not illustrated) neurons.
Since 9 of 13 animals from the TBI+vehicle group had spared ipsilateral hippocampal tissue, counting of injured vs. healthy appearing cells of the CA1 subregion was carried out in a subset of animals from the TBI+vehicle group and compared with the CBD treated group to estimate whether injury on one side is related to the amount of injury on the other side. Measurements of the CA1 area and total volumetric measurements of the ipsilateral hemisphere were used for correlating ipsilateral injury with ipsilateral and contralateral hippocampal cellular injury.

[3] = tested on: rats with cortical contusion injury (TBI); test: Novel Object Recognition test after TBI; format: in vivo, rat
Method: as §1, §2
The Novel Object Recognition test was utilized to evaluate the short-term and working memory of the TBI+CBD group compared to control TBI levels at 27-29 days and naive untreated young rats. Following habituation, animals could explore an open field with two objects for 3 consecutive days by introducing two same objects on day 1 and adding a novel object on days 2 and 3 without visual cues.

[4] = tested on: rats with cortical contusion injury (TBI); test: Spontaneous alternating T-maze after TBI; format: in vivo, rat
Method: as §1, §2
The spontaneous alternating T-maze was utilized at 3 and 28 days following TBI or TBI+CBD in order to assess spatial sense, memory and cognitive ability. Naïve untreated rats spontaneously alternated between left and right arms. There was a tendency of asymmetry to the left arm, but the number of entries was not great enough to exclude the possibility that the difference was due to random sampling variability (L: 6.3±1.7 vs. R: 4.7±0.52, N=10, two-tailed t=2.1, df=18, p=0.05). At 3 days following TBI to the left hemisphere, arm entry was impaired.

[5] = tested on: rats with cortical contusion injury (TBI); test: Cortical contusion injury (weight drop TBI), lesion histology; format: in vivo, rat
Method: as §1, §2
After direct delivery of the CBD internal gelatinized matrix, dental acrylic was used to close the wound. Animals became active 30-40 min following surgery.
FIG. 5 depicts schematic overview perspectives of an internal CBD absorbable medical carrier applied to the internal brain wound in the rat with systemic supplementation.

[6] = tested on: rats with cortical contusion injury (TBI); test: Beam balance test (vestibulomotor function) after TBI; format: in vivo, rat; settings: compared to TBI untreated rats; day 14 through day 28
Method: as §1
Drug Administration. Rats in the TBI+CBD group received the gelfoam sponge infused with CBD (20.0 mg/ml) directly to the open contusion site overlying the dura within 2 min after the weight was removed from the apparatus. CBD was also administered systemically 10 min following surgery at 40 mg/kg followed by 20 mg/kg for all other injection days. […]
Vestibulomotor function was determined with the beam balance test in the TBI untreated and TBI+CBD treated rats. […]

[7] = tested on: rats with spinal cord contusion (SCI); test: Spinal cord contusion (SCI), lesion and locomotor recovery; format: in vivo, rat
Text: FIG. 6 depicts schematic overview perspectives of an internal CBD absorbable medical carrier applied to the internal wound in the rat with systemic supplementation with a spinal cord contusion (SCI).

[8] = comparison of both hemispheres, p=0.037

SMILES: C=C(C)[C@@H]1CCC(C)=C[C@H]1c1c(O)cc(CCCCC)cc1O [CBD, cannabidiol]
- absorbed in the body ([1]; ingestion): 5-20%
- absorbed in the body ([1]; vaping or smoking): 30-60%
- hippocampal injury at the cellular level (H&E, in words) ([2]; CBD local and peripheral delivery system): partially attenuated
- contralateral hippocampus hilus irregular stained/injured cells ([2]; TBI+vehicle 30.4 4.17, p=0.002): 7.63±1.86
- contralateral hippocampus CA1 irregular stained/injured cells ([2]; TBI+vehicle 53.3±10.9, p=0.045): 14.22±2.2
- number of injured CA1 neurons, contralateral side (comparison of both hemispheres) [2, 8]: 14.21±2.29
- number of injured CA1 neurons, ipsilateral side [2, 8]: 172.75±70
- percent of CA1 contralateral injured cell counts relative to TBI+vehicle ([2]; relative to TBI+vehicle): 26.7±4.37%
- ratio of ipsilateral injured CA1 neurons to healthy appearing CA1 pyramidal neurons ([2]; versus TBI+vehicle): unchanged
- overall mobility ([3]; 27-29 days post-TBI): greater than TBI rats and similar to naïve untreated controls
- speed of travel ([3]; 27-29 days post-TBI, p=0.032): greater speed than TBI rats
- distance travelled ([3]; averaged from days 2+3 of testing, 27-29 days post-TBI, p=0.03): greater distance than TBI+vehicle treated rats
- number of episodes of interacting with old and novel objects ([3]; compared to TBI rats, not significantly different from naïve rats): much greater
- time spent with the novel object ([3]; compared to TBI, not significantly different from naïve rats): much greater
- time to choose right or left ([4]; 3 or 28 days post-injury, not significantly different from TBI+vehicle): 13 to 33 s
- asymmetry of arm entry to the left ([4]; 3 days following TBI to the left hemisphere): highly significant
- percent alternating in T-maze ([4]; 28 days after TBI, TBI 17.5±11.8%): 52.5±8.53%
- spontaneous alternation (in words) ([4]; after 28 days): significant increase in percent alternating
- area affected, normalized to TBI+vehicle treated group ([5]; Bregma AP 1.2 to −6.8, local sponge plus systemic CBD, p=0.0008): 34.04±6.38%
- ipsilateral cortical/hippocampal lesion volume ([5]; approximated from 12 levels, 4 weeks after TBI, gelfoam sponge with CBD 20.0 mg/ml at contusion site plus systemic CBD 40 then 20 mg/kg, TBI+vehicle 69.85±7.2): 21.4±3.5 mm^3
- lesion size after brain contusion (in words) ([5]; compared to contusion alone / TBI+vehicle): reduced ipsilateral lesion size; also recorded: decreased the size of the ipsilateral lesion
- total anterior to posterior lesion measurement ([5]; local sponge plus systemic CBD, TBI control 6.586±0.2, p=0.008): 5.867±0.17 mm
- lesion area at posterior levels (Bregma AP: −6.8 or further) ([5]; local sponge plus systemic CBD, comparison value 1.22±0.35, p=0.347): 0.92±0.17 mm^2
- beam balance performance / vestibulomotor function (in words) [6]: improved balance and locomotor function within a few days; also recorded: significant improvement
- locomotor recovery after spinal cord contusion (in words) ([7]; aged female rats, weeks 5 and 6 with continued CBD treatment): significant locomotor improvement
- spinal cord lesion area / tissue preservation (Luxol Fast Blue, in words) ([7]; internal CBD carrier plus 1 week of daily CBD injections and 3 weeks of intermittent CBD treatment): reduced volumetric lesion area

Reference: US20230158091A1, “C[…] CARRIER” (New York Medical College, priority 2020, published 2023)
